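Cells were grown in 96-well plates and exposed to each compound for 48 hours at five concentrations; endpoints were interpolated linearly between bracketing concentrations, or set to the highest concentration if not reached. TGI is the concentration that stops growth completely.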
Columns and labels:
Test in all cases: NCI anticancer screen, dose series, 48 h
[1] = tested on: SNB-75 CNS
[2] = tested on: EKVX NSCLC
[3] = tested on: HCT-116 colon
[4] = tested on: SF-295 CNS
[5] = tested on: RPMI-8226 leukemia
[6] = tested on: SK-MEL-5 melanoma
[7] = tested on: HT29 colon
[8] = tested on: CCRF-CEM leukemia
[9] = tested on: NCI-H226 lung
[10] = tested on: LXFL 529 NSCLC
[11] = tested on: K-562 leukemia
[12] = tested on: DMS 114 small cell lung
[13] = tested on: SNB-78 CNS
[14] = tested on: IGROV1 ovarian
[15] = tested on: HCC-2998 colon
[16] = tested on: DMS 273 small cell lung
[17] = tested on: RXF 393 renal
[18] = tested on: SN12C renal
[19] = tested on: OVCAR-3 ovarian
[20] = tested on: KM12 colon
[21] = tested on: HL-60(TB) leukemia
[22] = tested on: SW-620 colon
[23] = tested on: SK-MEL-28 melanoma
[24] = tested on: OVCAR-8 ovarian
[25] = tested on: SF-268 CNS
[26] = tested on: HOP-62 NSCLC
[27] = tested on: 786-0 renal
[28] = tested on: NCI-H460 lung
[29] = tested on: TK-10 renal
[30] = tested on: LOX IMVI melanoma
[31] = tested on: M14 melanoma
[32] = tested on: SR leukemia
[33] = tested on: MALME-3M melanoma
[34] = tested on: OVCAR-4 ovarian
[35] = tested on: UO-31 renal
[36] = tested on: SF-539 CNS
[37] = tested on: NCI-H23 lung
[38] = tested on: MOLT-4 leukemia
[39] = tested on: A549 NSCLC
[40] = tested on: SK-MEL-2 melanoma
[41] = tested on: HCT-15 colon
[42] = tested on: OVCAR-5 ovarian
[43] = tested on: XF 498 CNS
[44] = tested on: M19-MEL melanoma
[45] = tested on: SNB-19 CNS
[46] = tested on: KM20L2 colon
[47] = tested on: NCI-H522 lung
[48] = tested on: ACHN renal
[49] = tested on: UACC-62 melanoma
[50] = tested on: U251 CNS
[51] = tested on: COLO 205 colon

## COC(=O)c1c(C(=O)OC)c2cc(C(=O)c3ccccc3)ccn2c1Cl
[1]
  TGI: 55.4 µM
[2]
  TGI: > 100 µM
[3]
  TGI: > 100 µM
[4]
  TGI: 85.2 µM
[5]
  TGI: 51.7 µM
[6]
  TGI: 33.2 µM
[7]
  TGI: > 100 µM
[8]
  TGI: 78 µM
[9]
  TGI: 64.7 µM
[10]
  TGI: > 100 µM
[11]
  TGI: > 100 µM
[12]
  TGI: 89.1 µM
[13]
  TGI: > 100 µM
[14]
  TGI: > 100 µM
[15]
  TGI: > 100 µM
[16]
  TGI: 90.4 µM
[17]
  TGI: 85 µM
[18]
  TGI: > 100 µM
[19]
  TGI: 63.1 µM
[20]
  TGI: 72.8 µM
[21]
  TGI: 54.2 µM
[22]
  TGI: > 100 µM
[23]
  TGI: > 100 µM
[24]
  TGI: > 100 µM
[25]
  TGI: > 100 µM
[26]
  TGI: > 100 µM
[27]
  TGI: > 100 µM
[28]
  TGI: > 100 µM
[29]
  TGI: > 100 µM
[30]
  TGI: > 100 µM
[31]
  TGI: > 100 µM
[32]
  TGI: 40.5 µM
[33]
  TGI: > 100 µM
[34]
  TGI: > 100 µM
[35]
  TGI: 89.8 µM
[36]
  TGI: > 100 µM
[37]
  TGI: 88.1 µM
[38]
  TGI: 51.5 µM
[39]
  TGI: > 100 µM
[40]
  TGI: > 100 µM
[41]
  TGI: > 100 µM
[42]
  TGI: > 100 µM
[43]
  TGI: 66.6 µM
[44]
  TGI: > 100 µM
[45]
  TGI: > 100 µM
[46]
  TGI: > 100 µM
[47]
  TGI: 50.8 µM
[48]
  TGI: > 100 µM
[49]
  TGI: 88.4 µM
[50]
  TGI: > 100 µM
[51]
  TGI: > 100 µM

— PubChem BioAssay (NCI)
